Experimental data taken from US12679878B2, “CRF2 receptor agonists and their use in therapy” (SANOFI, priority 2020, dated 2026).
Converted amounts (≈) assume the structure as drawn. Starred links: 1 amine or outer side, 2 acyl side, 3 side chain; linkers in the order of their positions; H or OH if unused. Non-standard residues stand in square brackets, D forms with d. Residues, ends and D or L forms follow the SMILES beside them. Groups on a side chain read outwards from the residue. *: point of attachment. C18 diacid = O=C(O)CCCCCCCCCCCCCCCCC(=O)*; γGlu = O=C(O)[C@H](CCC(=O)[*:2])N[*:1]; AEEA = NCCOCCOCC(=O)O; Aib = CC(C)(N)C(=O)O

Legend:
[1] = tested on: rat CRF2R α receptor; assay: cAMP agonism at rat CRF2R α receptor in A7R5 rat aortic smooth muscle cells (Example 8); type: cell-based; conditions: cAMP HTRF, A7R5 rat aortic smooth muscle cell line, 0% HSA
Procedure, shortened: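 Potency (EC50) is the concentration reaching half-maximal activation, with responses scaled so that 1000 nM urocortin 2 equals 100%. Intracellular cAMP was quantified by homogeneous time-resolved fluorescence at 665/620 nm, 1 h after lysis-buffer reagents. Compound stimulation lasted 30 min at room temperature on 2000 IBMX-treated (2 mM) cells per well in HEPES-buffered HBSS.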

[2] = Solubility in buffer systems by UPLC-UV (Example 13); type: physicochemical
Procedure, shortened: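 Quantitation used UV peak area from UPLC of the 1:10-diluted supernatant, set against a reference-compound standard curve with extinction coefficients adjusted for amino acid sequence.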

[3] = Physical stability, Thioflavin T fibrillation assay (Example 14); type: physicochemical; conditions: 3 mg/ml, 37° C. shaking
Procedure, shortened: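 Fibrillation tendency was judged from lag time and rise in Thioflavin T fluorescence, measured every 20 minutes over eight replicates per sample. Peptides at 3 mg/ml final were held at 37° C under cycles of 10 s shaking (960 rpm) and 50 s rest.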

[4] = Physical stability, dynamic light scattering assay (Example 15); type: physicochemical; conditions: for Apparent Rh [nm] 4 weeks / Scattering Intensity (I) [%] 4 weeks: 4 weeks at 40° C.
Procedure, shortened: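 DLS at 837 nm, 150° angle, +25° C; Rh, scattering intensity and mass contribution measured at 0 weeks and after 4 weeks at 40° C. Rh and D compared at 1, 5 and 10 mg/ml as kD surrogate; separate measurements at 300 μM, purity-corrected.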

[5] = pH 4.5, Solubility in Buffer B [mg/ml]
[6] = pH 7.4, Solubility in Buffer C [mg/ml]
[7] = Buffer A: 100 mM acetate buffer, pH 4.5
[8] = Buffer B: 100 mM acetate buffer, pH 4.5, 2.7 mg/ml m-cresol
[9] = pH 4.5, Solubility in Buffer A [mg/ml]
[10] = Buffer A (100 mM acetate, pH 4.5)
[11] = Buffer D (20 mM phosphate, pH 7.4)

| Structure (SMILES) | EC50 [1] [nM] | solubility at 1 h [2, 5] [µg/mL] | solubility at 1 h [2, 6] [µg/mL] | Increase in FI (fluorescence intensity) [3, 7] | Lag time [3, 7] [h] | Increase in FI (fluorescence intensity) [3, 8] | Lag time [3, 8] [h] | solubility at 1 h [2, 9] [µg/mL] | Apparent Rh [nm] 0 weeks [4, 10] [nm] | Scattering Intensity (I) [%] 0 weeks [4, 10] [%] | Apparent Rh [nm] 4 weeks [4, 10] [nm] | Scattering Intensity (I) [%] 4 weeks [4, 10] [%] | Apparent Rh [nm] 0 weeks [4, 11] [nm] | Scattering Intensity (I) [%] 0 weeks [4, 11] [%] | Apparent Rh [nm] 4 weeks [4, 11] [nm] | Scattering Intensity (I) [%] 4 weeks [4, 11] [%] |
| --- | --- | --- | --- | --- | --- | --- | --- | --- | --- | --- | --- | --- | --- | --- | --- | --- |
| CC[C@H](C)[C@H](N)C(=O)N[C@H](C(=O)N[C@@H](CC(C)C)C(=O)N[C@@H](CO)C(=O)N[C@@H](CC(C)C)C(=O)N[C@@H](CC(=O)O)C(=O)N[C@H](C(=O)N1CCC[C@H]1C(=O)N[C@H](C(=O)N[C@@H](CCCCN)C(=O)N[C@@H](CC(C)C)C(=O)N[C@@H](CCCCNC(=O)COCCOCCNC(=O)COCCOCCNC(=O)CC[C@H](NC(=O)CCCCCCCCCCCCCCCCC(=O)O)C(=O)O)C(=O)N[C@@H](CCCCN)C(=O)N[C@H](C(=O)N[C@@H](CC(C)C)C(=O)N[C@@H](CC(C)C)C(=O)N[C@@H](CCC(=O)O)C(=O)N[C@@H](CCC(N)=O)C(=O)N[C@@H](CCC(=O)O)C(=O)N[C@@H](CCCCN)C(=O)N[C@@H](CCC(N)=O)C(=O)N[C@@H](CCCCN)C(=O)N[C@@H](CCCCN)C(=O)N[C@@H](CCC(N)=O)C(=O)N[C@@H](CCCNC(=N)N)C(=O)N[C@@H](CCC(=O)O)C(=O)N[C@@H](CCC(N)=O)C(=O)N[C@@H](C)C(=O)N[C@@H](CCC(=O)O)C(=O)N[C@H](C(=O)N[C@@H](CC(N)=O)C(=O)N[C@@H](CCCCN)C(=O)N[C@@H](CCC(N)=O)C(=O)N[C@H](C(=O)N[C@@H](CC(C)C)C(=O)N[C@@H](C)C(=O)N[C@@H](CCC(N)=O)C(=O)N[C@H](C(N)=O)C(C)C)[C@@H](C)CC)[C@@H](C)O)[C@@H](C)CC)[C@@H](C)CC)C(C)C)C(C)C [compound 35] (H-IVLSLDVPIKLK([AEEA-AEEA-γGlu-C18 diacid])KILLEQEKQKKQREQAETNKQILAQV-NH2; N-terminus assumed) | 0.81 | > 8700 | > 9800 | No | >45 | No | >45 |  |  |  |  |  |  |  |  |  |
| CC[C@H](C)[C@H](N)C(=O)N[C@H](C(=O)N[C@@H](CC(C)C)C(=O)N[C@@H](CO)C(=O)N[C@@H](CC(C)C)C(=O)N[C@@H](CC(=O)O)C(=O)N[C@H](C(=O)N1CCC[C@H]1C(=O)N[C@H](C(=O)N[C@@H](CCCCN)C(=O)N[C@@H](CC(C)C)C(=O)N[C@@H](CCCCNC(=O)COCCOCCNC(=O)COCCOCCNC(=O)CC[C@H](NC(=O)CCCCCCCCCCCCCCCCC(=O)O)C(=O)O)C(=O)N[C@@H](CCCCN)C(=O)N[C@H](C(=O)N[C@@H](CC(C)C)C(=O)N[C@@H](CC(C)C)C(=O)N[C@@H](CCCCN)C(=O)N[C@@H](CCC(N)=O)C(=O)N[C@@H](CCC(=O)O)C(=O)N[C@@H](CCCNC(=N)N)C(=O)N[C@@H](CCC(N)=O)C(=O)N[C@@H](CCCCN)C(=O)N[C@@H](CCCCN)C(=O)NC(C)(C)C(=O)N[C@@H](CCCNC(=N)N)C(=O)N[C@@H](CCC(=O)O)C(=O)N[C@@H](CCC(N)=O)C(=O)N[C@@H](C)C(=O)N[C@@H](CCC(=O)O)C(=O)N[C@@H](CCCCN)C(=O)N[C@@H](CC(N)=O)C(=O)N[C@@H](CCCCN)C(=O)N[C@@H](CCC(N)=O)C(=O)N[C@H](C(=O)N[C@@H](CC(C)C)C(=O)N[C@@H](C)C(=O)N[C@@H](CCC(N)=O)C(=O)N[C@H](C(N)=O)C(C)C)[C@@H](C)CC)[C@@H](C)CC)[C@@H](C)CC)C(C)C)C(C)C [compound 99] (H-IVLSLDVPIKLK([AEEA-AEEA-γGlu-C18 diacid])KILLKQERQKK[Aib]REQAEKNKQILAQV-NH2) | 0.62 |  |  |  |  | No | >45 | > 10000 | 3.32 ± 0.18 | 100 ± 1 | 3.42 ± 0.04 | 99 ± 1 |  |  |  |  |
| CC[C@H](C)[C@H](N)C(=O)N[C@H](C(=O)N[C@@H](CC(C)C)C(=O)N[C@@H](CO)C(=O)N[C@@H](CC(C)C)C(=O)N[C@@H](CC(=O)O)C(=O)N[C@@H](C(=O)N1CCC[C@H]1C(=O)N[C@H](C(=O)N[C@@H](CCCCN)C(=O)N[C@@H](CC(C)C)C(=O)N[C@@H](CCCCNC(=O)COCCOCCNC(=O)COCCOCCNC(=O)CC[C@H](NC(=O)CCCCCCCCCCCCCCCCC(=O)O)C(=O)O)C(=O)N[C@@H](CCC(N)=O)C(=O)N[C@H](C(=O)N[C@@H](CC(C)C)C(=O)N[C@@H](CC(C)C)C(=O)N[C@@H](CCCCN)C(=O)N[C@@H](CCC(N)=O)C(=O)N[C@@H](CCC(=O)O)C(=O)N[C@@H](CCCNC(=N)N)C(=O)N[C@@H](CCC(N)=O)C(=O)N[C@@H](CCCCN)C(=O)NC(C)(C)C(=O)N[C@@H](CCC(N)=O)C(=O)N[C@@H](CCCNC(=N)N)C(=O)N[C@@H](CCC(N)=O)C(=O)N[C@@H](CCC(N)=O)C(=O)N[C@@H](C)C(=O)N[C@@H](CCC(=O)O)C(=O)N[C@@H](CCCCN)C(=O)N[C@@H](CC(N)=O)C(=O)N[C@@H](CCCCN)C(=O)N[C@@H](CCC(N)=O)C(=O)N[C@H](C(=O)N[C@@H](CC(C)C)C(=O)N[C@@H](C)C(=O)N[C@@H](CCC(N)=O)C(=O)N[C@H](C(N)=O)C(C)C)[C@@H](C)CC)[C@@H](C)CC)[C@@H](C)CC)C(C)C)C(C)C [compound 135] (H-IVLSLD[dV]PIKLK([AEEA-AEEA-γGlu-C18 diacid])QILLKQERQK[Aib]QRQQAEKNKQILAQV-NH2; N-terminus assumed) | 0.13 | > 9200 | 7500 (≈ 1450 µM) |  |  | No | >45 | > 8400 | 2.83 ± 0.12 | 99 ± 1 | 3.01 ± 0.03 | 99 ± 1 | 2.54 ± 0.16 | 100 ± 0 | 2.63 ± 0.15 | 100 ± 0 |
